In PubChem BioAssay (NCI):
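Growth conditions: 96-well plates. Treatment: test compound, 48 hours, 5 concentrations. Analysis: linear interpolation between bracketing concentrations; unreached endpoints set to highest concentration. Here, GI50 denotes the concentration required for 50% inhibition of growth. TGI denotes the concentration required for complete inhibition of growth.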

How the values were obtained:
Experiment in all cases: NCI anticancer screen, dose series, 48 h
SR leukemia = test system: SR leukemia
HCT-116 colon = test system: HCT-116 colon
A549 NSCLC = test system: A549 NSCLC
A498 renal = test system: A498 renal
SNB-19 CNS = test system: SNB-19 CNS
U251 CNS = test system: U251 CNS
NCI-H226 lung = test system: NCI-H226 lung
786-0 renal = test system: 786-0 renal
SK-MEL-5 melanoma = test system: SK-MEL-5 melanoma
CAKI-1 renal = test system: CAKI-1 renal

| Structure (SMILES) | GI50 (SR leukemia) | TGI (SR leukemia) | GI50 (HCT-116 colon) | TGI (HCT-116 colon) | GI50 (A549 NSCLC) | TGI (A549 NSCLC) | GI50 (A498 renal) | TGI (A498 renal) | GI50 (SNB-19 CNS) | TGI (SNB-19 CNS) | GI50 (U251 CNS) | TGI (U251 CNS) | GI50 (NCI-H226 lung) | TGI (NCI-H226 lung) | GI50 (786-0 renal) | TGI (786-0 renal) | GI50 (SK-MEL-5 melanoma) | TGI (SK-MEL-5 melanoma) | GI50 (CAKI-1 renal) | TGI (CAKI-1 renal) |
| --- | --- | --- | --- | --- | --- | --- | --- | --- | --- | --- | --- | --- | --- | --- | --- | --- | --- | --- | --- | --- |
| COc1cc(OC)c(NC(=O)c2cc3ccccc3cc2O)cc1Cl | 5.25 µM | 91.5 µM | 2.91 µM | 10.1 µM | 3.38 µM | 10.5 µM | 2.15 µM | 5.57 µM | 4.82 µM | > 100 µM | 3.22 µM | 10.5 µM | 3.32 µM | 17.7 µM | 4.51 µM | > 100 µM | 2.4 µM | 6.34 µM | 1.9 µM | 6.68 µM |
| CCN(CC)CCCC(C)N=c1cc(Nc2cc(=NC(C)CCCN(CC)CC)c3cc(OC)ccc3o2)oc2ccc(OC)cc12 (centres undefined) | 0.943 µM | 3.02 µM | 0.683 µM | 1.81 µM | 0.849 µM | 1.87 µM | 1.15 µM | 7.83 µM | 1.99 µM | 13 µM | 1.15 µM | 3.4 µM | 0.58 µM | 2.37 µM | 2.26 µM | 8.01 µM | 0.731 µM | 1.39 µM | 1.34 µM | 5.75 µM |
| C[n+]1ccc(-c2c3nc(c(-c4cc[n+](C)cc4)c4ccc([n-]4)c(-c4cc[n+](C)cc4)c4nc(c(-c5cc[n+](C)cc5)c5ccc2[n-]5)C=C4)C=C3)cc1.[I-].[Zn+2] | 32.2 µM | 94.7 µM | 50.5 µM | > 100 µM | 22.3 µM | 49.5 µM | 8.34 µM | 31.3 µM | 19.4 µM | 45.5 µM | 22 µM | 52.8 µM | 14.9 µM | 48.3 µM | 8.39 µM | 28 µM | 15.9 µM | 37.4 µM | 20 µM | 41.7 µM |
| C[C@H]1[C@H]2[C@H]3CC[C@@H]4[C@@]5(C)C/C(=C/c6cccnc6)C(=O)C(C)(C)[C@@H]5CC[C@@]4(C)[C@]3(C)CC[C@]23CO[C@]1(C)[C@@H](C(=O)/C=C\c1cccnc1)C3 | 0.371 µM | – | 0.385 µM | 1.28 µM | 1.22 µM | 3.29 µM | 0.661 µM | 1.54 µM | 0.869 µM | 1.76 µM | 0.964 µM | 2.07 µM | 0.97 µM | 2.1 µM | 0.905 µM | 1.95 µM | 0.836 µM | 1.54 µM | 1.45 µM | > 15.4 µM |
| CC1(C)CCC(C)(C)c2c1ccc(O)c2Cc1c(O)ccc2c1C(C)(C)CCC2(C)C | – | 6.8 µM | – | 4.2 µM | – | 5.57 µM | – | 3.43 µM | – | 5.4 µM | – | 3.18 µM | – | 3.88 µM | – | 3.61 µM | – | 3.51 µM | – | 4.2 µM |
| CC(C)(C)OC(=O)NC(CO)c1cccc(OCc2ccccc2)c1 (centres undefined) | – | > 100 µM | – | > 100 µM | – | > 100 µM | – | > 100 µM | – | > 100 µM | – | > 100 µM | – | > 100 µM | – | > 100 µM | – | > 100 µM | – | > 100 µM |
| C/C(=C\COc1c2c(cc3c1CCO3)OC1(C=C2)OC(CC/C(C)=C/COc2c3ccoc3cc3oc(=O)ccc23)C(C)(C)O1)CCC(O)C(C)(C)O (centres undefined) | 5.04 µM | > 100 µM | 18.4 µM | > 100 µM | 13.3 µM | > 100 µM | 32.8 µM | > 100 µM | 55.2 µM | > 100 µM | 44.4 µM | > 100 µM | 58.7 µM | > 100 µM | > 100 µM | > 100 µM | 8.85 µM | > 100 µM | 8.07 µM | > 100 µM |
